# Source: patent US20090105124A1, “HETEROCYCLIC MODULATORS OF TGR5” (Kalypsys, Inc., priority 2007, published 2009)
# Molecular target: T1, human TGR5 (Homo sapiens, UniProt Q8TDU6)
# T1 construct: expressed in transfected cells
# T1 sequence (Q8TDU6 1-330): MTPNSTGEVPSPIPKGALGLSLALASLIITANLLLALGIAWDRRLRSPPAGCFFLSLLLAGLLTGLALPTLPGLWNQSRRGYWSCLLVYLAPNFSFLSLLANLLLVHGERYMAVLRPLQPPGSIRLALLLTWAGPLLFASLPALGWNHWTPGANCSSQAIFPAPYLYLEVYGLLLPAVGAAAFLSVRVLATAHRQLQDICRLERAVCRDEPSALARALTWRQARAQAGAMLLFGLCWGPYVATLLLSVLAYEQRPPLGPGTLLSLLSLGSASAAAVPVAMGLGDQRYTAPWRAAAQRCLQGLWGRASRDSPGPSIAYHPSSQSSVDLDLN
# Assay: cAMP production assay in HEK293 cells stably expressing TGR5 (LANCE cAMP, TR-FRET)
# Format: cell-based
# Settings: stimulated with test compounds for 30 minutes, 1 mM IBMX, read-out: cAMP Production in 293-TGR5 Cells
# Procedure: HEK293 cells stably expressing TGR5 (HEK293-TGR5) were established by stably transfecting HEK-293 cells with an expression vector (pcDNA 3.1, Invetrogen) inserted with human TGR5 cDNA using Fugene6 (Roche, Indianapolis, Ind.) according to conventional methods. Cells were grown in DMEM (invitrogen, Carlsbad, Calif.) supplemented with 10% FBS, 1% penicillin/streptomycin under geneticin selection. The presence of TGR5 transcripts in these cells was confirmed using branched DNA (bDNA, Genospectra, Inc., Fremont Calif.) following the manufacturer's protocol and using specific probes for human TGR5. cAMP production assay was performed in high throughput 1536 well format using LANCE cAMP detection kit (Perkin Elmer Inc., Boston, Mass.) according to the manufacturer's protocol. Briefly, HEK293-TGR5 cells were harvested using non-enzymatic cell dissociation buffer (Invitrogen, Carlsbad, Calif.) and suspended in DMEM supplemented with 0.1% FBS at a density of 800,000 cells/ml. Alexa antibody was added to the cell suspension, and 4 ul of the mixture was dispensed in white opaque tissue culture treated Greiner 1536 well plates (USA Scientific, Inc., Ocala, Fla.). After an overnight incubation at 37 C in an atmosphere of 10% CO2 and 95% humidity, 1 ul of 5 mM IBMX (Sigma, St. Louis, Mo.) solution in DMEM was dispensed for a final concentration of 1 mM. Cells were then stimulated with test compounds for 30 minutes, after which time 5 ul of detection reagent was added and incubated for 1-7 hrs at room temperature. TR-FRET signal was detected using the Viewlux (Perkin Elmer Inc., Boston Mass.). EC50 values were determined using Graph Pad Prizm analysis (GraphPad Software, Inc). The EC50 values for a wide range of bile acids generated from this assay were in agreement with the values published in the scientific literature. […] The symbol (+) denotes an EC50 value of ≦10 μM while the symbol (−) denotes an EC50 value of >10 μM (see Table 1).
row,EC50 [µM],SMILES
1,≤ 10,"O=c1c2sccc2nc(-c2ccc(F)cc2)n1NCc1ccc(Cl)cc1 [Example 37, 3-{[(4-Chlorophenyl)methyl]amino}-2-(4-fluorophenyl)-3H,4H-thieno[3,2-d]pyrimidin-4-one]"
2,> 10,"O=c1c2c(nc(-c3ccc(F)cc3)n1NCc1ccc(Br)cc1)CNCC2 [Example 51, 3-{[(4-Bromophenyl)methyl]amino}-2-(4-fluorophenyl)-3H,4H,5H,6H,7H,8H-pyrido[3,4-d]pyrimidin-4-one]"
3,≤ 10,"COc1cncc(-c2nc3ccsc3c(=O)n2NCc2ccc(Cl)cc2)c1 [Example 27, 3-{[(4-Chlorophenyl)methyl]amino}-2-(5-methoxypyridin-3-yl)-3H,4H-thieno[3,2-d]pyrimidin-4-one]"
4,≤ 10,"O=c1c2cccnc2nc(-c2cccnc2)n1NCc1ccc(Cl)cc1 [Example 7, 3-{[(4-Chlorophenyl)methyl]amino}-2-(pyridin-3-yl)-3H,4H-pyrido[2,3-d]pyrimidin-4-one]"
5,≤ 10,"O=c1c2cccnc2nc(-c2ccc(O)cc2)n1NCc1ccc(Br)cc1 [Example 6, 3-{[(4-Bromophenyl)methyl]amino}-2-(4-hydroxyphenyl)-3H,4H-pyrido[2,3-d]pyrimidin-4-one]"
6,≤ 10,"O=c1c2nccnc2nc(-c2ccc(F)cc2)n1NCc1ccc(Cl)c(F)c1 [Example 45, 3-{[(4-Chloro-3-fluorophenyl)methyl]amino}-2-(4-fluorophenyl)-3,4-dihydropteridin-4-one]"
7,≤ 10,"O=c1c2ccsc2nc(-c2ccc(F)cc2)n1NCc1ccc(Br)cc1 [Example 31, 3-{[(4-Bromophenyl)methyl]amino}-2-(4-fluorophenyl)-3H,4H-thieno[2,3-d]pyrimidin-4-one]"
8,≤ 10,"Cn1ncc2nc(-c3ccc(F)cc3)n(NCc3ccc(Br)cc3)c(=O)c21 [Example 40, 6-{[(4-Bromophenyl)methyl]amino}-5-(4-fluorophenyl)-1-methyl-1H,6H,7H-pyrazolo[4,3-d]pyrimidin-7-one]"
9,≤ 10,"O=c1c2cccnc2nc(-c2ccc(F)cc2)n1NCc1ccc(Cl)cc1 [Example 10, 3-{[(4-Chlorophenyl)methyl]amino}-2-(4-fluorophenyl)-3H,4H-pyrido[2,3-d]pyrimidin-4-one]"
10,≤ 10,"COc1cncc(-c2nc3cnccc3c(=O)n2NCc2ccc(Cl)cc2)c1 [Example 16, 3-{[(4-Chlorophenyl)methyl]amino}-2-(5-methoxypyridin-3-yl)-3H,4H-pyrido[3,4-d]pyrimidin-4-one]"
11,≤ 10,"COc1cncc(-c2nc3ccsc3c(=O)n2NCC2CCC2)c1 [Example 28, 3-[(Cyclobutylmethyl)amino]-2-(5-methoxypyridin-3-yl)-3H,4H-thieno[3,2-d]pyrimidin-4-one]"
12,≤ 10,"O=c1c2ccncc2nc(-c2ccc(F)cc2)n1NCc1ccc(Br)cc1 [Example 17, 3-{[(4-Bromophenyl)methyl]amino}-2-(4-fluorophenyl)-3H,4H-pyrido[3,4-d]pyrimidin-4-one]"
13,≤ 10,"O=c1c2ccsc2nc(-c2ccc(F)cc2)n1NCc1ccc(Cl)c(Cl)c1 [Example 33, 3-{[(3,4-Dichlorophenyl)methyl]amino}-2-(4-fluorophenyl)-3H,4H-thieno[2,3-d]pyrimidin-4-one]"
14,≤ 10,"Cc1cc(-c2nc3cnccc3c(=O)n2NCc2ccc(Cl)cc2)ccc1[N+](=O)[O-] [Example 19, 3-{[(4-Chlorophenyl)methyl]amino}-2-(3-methyl-4-nitrophenyl)-3H,4H-pyrido[3,4-d]pyrimidin-4-one]"
15,≤ 10,"Cc1cc(-c2nc3cnccc3c(=O)n2NCc2ccc(Cl)cc2)ccc1N [Example 20, 2-(4-Amino-3-methylphenyl)-3-{[(4-chlorophenyl)methyl]amino}-3H,4H-pyrido[3,4-d]pyrimidin-4-one]"
16,≤ 10,"O=c1c2cnccc2nc(-c2ccc(F)cc2)n1NCc1ccc(Cl)cc1 [Example 23, 3-{[(4-Chlorophenyl)methyl]amino}-2-(4-fluorophenyl)-3H,4H-pyrido[4,3-d]pyrimidin-4-one]"
17,≤ 10,"O=c1c2cccnc2nc(-c2ccccc2F)n1NCc1ccc(Cl)cc1 [Example 2, 3-{[(4-Chlorophenyl)methyl]amino}-2-(2-fluorophenyl)-3H,4H-pyrido[2,3-d]pyrimidin-4-one]"

row,EC50 [µM],SMILES
1,≤ 10,"COc1cc(-c2nc3cnccc3c(=O)n2NCc2ccc(Cl)cc2)ccc1O [Example 22, 3-{[(4-Chlorophenyl)methyl]amino}-2-(4-hydroxy-3-methoxyphenyl)-3H,4H-pyrido[3,4-d]pyrimidin-4-one]"
2,≤ 10,"O=c1c2ccsc2nc(-c2ccc(O)cc2)n1NCc1ccc(Br)cc1 [Example 26, 3-{[(4-Bromophenyl)methyl]amino}-2-(4-hydroxyphenyl)-3H,4H-thieno[2,3-d]pyrimidin-4-one]"
3,> 10,"Cn1ncc2nc(-c3ccc(F)cc3)n(NCc3ccc(F)c(F)c3)c(=O)c21 [Example 42, 6-{[(3,4-Difluorophenyl)methyl]amino}-5-(4-fluorophenyl)-1-methyl-1H,6H,7H-pyrazolo[4,3-d]pyrimidin-7-one]"
4,≤ 10,"O=c1c2cncnc2nc(-c2ccc(F)cc2)n1NCc1ccc(Cl)cc1 [Example 30, 3-{[(4-Chlorophenyl)methyl]amino}-2-(4-fluorophenyl)-3H,4H-pyrimido[4,5-d][1,3]diazin-4-one]"
5,≤ 10,"COc1cncc(-c2nc3ncccc3c(=O)n2NCc2ccc(Cl)cc2)c1 [Example 9, 3-{[(4-Chlorophenyl)methyl]amino}-2-(5-methoxypyridin-3-yl)-3H,4H-pyrido[2,3-d]pyrimidin-4-one]"
6,> 10,"O=c1c2nccnc2nc(-c2ccc(F)cc2)n1/N=C/c1ccc(Br)cc1 [Example 50, 3-[(E)-[(4-Bromophenyl)methylidene]amino]-2-(4-fluorophenyl)-3,4-dihydropteridin-4-one]"
7,≤ 10,"O=c1c2ccsc2nc(-c2ccc(F)cc2)n1NCc1ccc(Cl)cc1 [Example 32, 3-{[(4-Chlorophenyl)methyl]amino}-2-(4-fluorophenyl)-3H,4H-thieno[2,3-d]pyrimidin-4-one]"
8,≤ 10,"O=c1c2ccncc2nc(-c2cncc(Cl)c2)n1NCc1ccc(Cl)cc1 [Example 18, 3-{[(4-Chlorophenyl)methyl]amino}-2-(5-chloropyridin-3-yl)-3H,4H-pyrido[3,4-d]pyrimidin-4-one]"
9,≤ 10,"O=c1c2sccc2nc(-c2ccc(F)cc2)n1NCc1ccc(Cl)c(Cl)c1 [Example 36, 3-{[(3,4-Dichlorophenyl)methyl]amino}-2-(4-fluorophenyl)-3H,4H-thieno[3,2-d]pyrimidin-4-one]"
10,≤ 10,"COc1cc(-c2nc3ncccc3c(=O)n2NCc2ccc(Br)cc2)ccc1C [Example 13, 3-{[(4-Bromophenyl)methyl]amino}-2-(3-methoxy-4-methylphenyl)-3H,4H-pyrido[2,3-d]pyrimidin-4-one]"
11,≤ 10,"O=c1c2nccnc2nc(-c2ccc(F)cc2)n1NCc1ccc(Cl)cc1 [Example 43, 3-{[(4-Chlorophenyl)methyl]amino}-2-(4-fluorophenyl)-3,4-dihydropteridin-4-one]"
12,≤ 10,"O=c1c2nccnc2nc(-c2cncc(Cl)c2)n1NCc1ccc(Cl)cc1 [Example 49, 3-{[(4-Chlorophenyl)methyl]amino}-2-(5-chloropyridin-3-yl)-3,4-dihydropteridin-4-one]"
13,≤ 10,"COc1cncc(-c2nc3nccnc3c(=O)n2NCc2ccc(Cl)cc2)c1 [Example 29, 3-{[(4-Chlorophenyl)methyl]amino}-2-(5-methoxypyridin-3-yl)-3,4-dihydropteridin-4-one]"
14,≤ 10,"O=c1c2cccnc2nc(-c2ccc(F)cc2)n1NCc1ccc(C(F)(F)F)cc1 [Example 11, 2-(4-Fluorophenyl)-3-({[4-(trifluoromethyl)phenyl]methyl}amino)-3H,4H-pyrido[2,3-d]pyrimidin-4-one]"
15,≤ 10,"O=c1c2cccnc2nc(-c2ccc(F)cc2)n1NCc1ccc(Br)cc1 [Example 4, 3-{[(4-Bromophenyl)methyl]amino}-2-(4-fluorophenyl)-3H,4H-pyrido[2,3-d]pyrimidin-4-one]"
16,≤ 10,"Cc1cncc(-c2nc3nccnc3c(=O)n2NCc2ccc(C#N)cc2)c1 [Example 48, 4-({[2-(5-Methylpyridin-3-yl)-4-oxo-3,4-dihydropteridin-3-yl]amino}methyl)benzonitrile]"
